Source: patent publication US8871210B2, “Chemokine receptor antagonists and use thereof” (Ono Pharmaceutical Co., Ltd., priority 2005, dated 2014)

Biological target: T1, CXCR4 (Homo sapiens, UniProt P61073)
T1 construct: a human T cell strain in which CXCR4 is known to be expressed; endogenous in cells; host or cells: CEM cells (human T cell strain)
Test: Inhibition of binding of human 125I-SDF-1 to CEM cells
Details: 125I-SDF-1, human T cell strain CEM cells, 4° C., 60 minutes
From the text: Specifically, as a system of screening a compound that inhibits the binding between SDF-1 and CXCR4, for example a system of measuring the binding between iodine-labeled SDF-1 and a human T cell strain in which CXCR4 is known to be expressed is operable. The identical idea is possible since macrophage (R5) HIV and RANTES, MIP-1α, and MIP-1β all bind to CCR5.
Study for Inhibition of Binding Human SDF-1 to CEM Cells
To human T cell strain CEM cells in a binding buffer (containing HEPES and BSA), the test compound and ^125I-SDF-1 (NEN) were added and the mixture was incubated at 4° C. for 60 minutes. The reacted CEM cells were rapidly filtrated with a GF/B membrane filter plate (Packard) to adsorb. The plate was washed with PBS three times and then dried. Microscint+20 (Packard) was added thereto. An amount of the radioactivity bound to the CEM cells was measured using Top Count (Packard) and inhibition (%) of the test compound was calculated according to the following equation: Inhibition={(Et−Ea)/(Et−Ec)}×100
Et: amount of radioactivity when the test compound is not added,
Ec: amount of radioactivity when non-radioactive SDF-1 (Pepro Tech) is added in an amount of 1000 times as much as ^125I-SDF-1 as a test compound, and
Ea: amount of radioactivity when the test compound is added.

T1 sequence (P61073 whole entry): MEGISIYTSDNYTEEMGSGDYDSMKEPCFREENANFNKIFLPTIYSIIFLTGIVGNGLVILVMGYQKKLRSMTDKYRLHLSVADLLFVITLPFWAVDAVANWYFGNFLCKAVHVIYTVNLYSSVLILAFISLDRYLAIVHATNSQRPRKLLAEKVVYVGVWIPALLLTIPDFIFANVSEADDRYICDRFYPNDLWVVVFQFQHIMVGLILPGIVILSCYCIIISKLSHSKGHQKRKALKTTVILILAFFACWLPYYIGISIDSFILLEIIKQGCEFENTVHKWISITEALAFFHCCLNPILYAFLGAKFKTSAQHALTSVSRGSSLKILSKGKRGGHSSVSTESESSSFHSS

IC50: 11 nM
Compound: Cc1ccsc1CN1CCC2(CC1)CCN(Cc1ccc(C(=O)C(Cc3ncc[nH]3)Cc3ncc[nH]3)cc1)C2 [compound 14, 3-(1H-imidazol-2-yl)-2-(1H-imidazol-2-ylmethyl)-1-[4-({8-[(3-methyl-2-thienyl)methyl]-2,8-diazaspiro[4.5]dec-2-yl}methyl)phenyl]propan-1-one]
